Reference: US12187709B2 (Genentech, Inc., priority 2021, dated 2025)

Experiments:
Cbl-b = Cbl-b (Homo sapiens (Human), UniProt Q13191); assay: Cbl-b LCK Ub TR-FRET assay (Cbl-b Lck HTRF); format: biochemical; settings: for IC50: Cbl-b LCK Ub TR-FRET; for fold-selectivity (Cbl-b over C-cbl): ratio C-cbl Lck HTRF IC50 / Cbl-b Lck HTRF IC50
Procedure, shortened: (§1)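 After the ubiquitination reaction, detection mixture was added and plates incubated 20 min at room temperature before reading. IC50 values were calculated with wells lacking LCK as the low control and DMSO as the high control.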

c-Cbl = c-Cbl (Homo sapiens (Human), UniProt P22681); assay: C-Cbl LCK Ub TR-FRET assay (C-cbl Lck HTRF); format: biochemical
Procedure, shortened: as §1

[1] = target: Human Cbl-b (residues 40-426) (Homo sapiens (Human), UniProt Q13191); assay: Cbl-b SPR assay; format: binding; settings: for Fold of selectivity: C-cbl SPR Kd vs Cbl-b SPR Kd; for Kd: SPR, 20° C.
Procedure, shortened: (§2)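 Where a chaser compound was used, % compound bound was calculated as (1−(RUT/RUT0))*100 relative to a prior chaser injection and fitted to a single exponential for kd. The single cycle titration (max 500 nM) was then fitted with kd held fixed.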

c-Cbl (residues 47-435) = c-Cbl (residues 47-435) (Homo sapiens (Human), UniProt P22681); assay: c-Cbl SPR assay; format: binding; settings: 20° C.
Procedure, shortened: as §2

Sequence of c-Cbl (residues 47-435) (P22681 47-435): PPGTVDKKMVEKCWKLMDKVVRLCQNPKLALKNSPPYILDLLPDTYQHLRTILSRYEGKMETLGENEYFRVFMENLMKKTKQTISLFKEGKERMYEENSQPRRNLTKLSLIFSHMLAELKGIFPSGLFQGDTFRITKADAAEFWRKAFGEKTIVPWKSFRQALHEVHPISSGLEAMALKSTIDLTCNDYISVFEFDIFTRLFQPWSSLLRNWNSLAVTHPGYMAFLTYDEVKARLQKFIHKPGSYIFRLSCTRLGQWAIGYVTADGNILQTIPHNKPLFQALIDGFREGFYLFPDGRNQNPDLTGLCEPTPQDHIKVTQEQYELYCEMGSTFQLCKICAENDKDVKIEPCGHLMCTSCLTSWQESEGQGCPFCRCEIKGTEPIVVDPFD
Sequence of c-Cbl (P22681 47-435): as above
Sequence of Human Cbl-b (residues 40-426) (Q13191 40-426): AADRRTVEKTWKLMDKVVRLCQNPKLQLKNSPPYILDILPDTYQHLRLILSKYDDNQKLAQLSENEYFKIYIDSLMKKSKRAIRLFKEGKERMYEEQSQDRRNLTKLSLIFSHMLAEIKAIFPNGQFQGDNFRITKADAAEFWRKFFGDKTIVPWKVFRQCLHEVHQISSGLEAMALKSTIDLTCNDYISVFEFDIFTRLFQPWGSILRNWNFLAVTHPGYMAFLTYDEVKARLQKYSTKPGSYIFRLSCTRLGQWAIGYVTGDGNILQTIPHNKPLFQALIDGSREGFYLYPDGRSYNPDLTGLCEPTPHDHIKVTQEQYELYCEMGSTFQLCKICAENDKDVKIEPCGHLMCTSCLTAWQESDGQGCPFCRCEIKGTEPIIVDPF
Sequence of Cbl-b (Q13191 40-426): as above

IC50 (Cbl-b)	fold-selectivity (Cbl-b over C-cbl) (Cbl-b)	IC50 (c-Cbl)	Fold of selectivity [1]	Kd [1]	Kd (c-Cbl (residues 47-435))	SMILES
12 nM	(0.94x)	11 nM	0.6×	4 nM	2.3 nM	Cn1cnnc1[C@]1(c2cccc(N3Cc4c(cc(CNC5(C)CCC5)cc4C(F)(F)F)C3=O)c2)C[C@H](C)C1 [Compound 34, 2-(3-((1s,3s)-3-methyl-1-(4-methyl-4H-1,2,4-triazol-3-yl)cyclobutyl)phenyl)-6-(((1-methylcyclobutyl)amino)methyl)-4-(trifluoromethyl)isoindolin-1-one]
9.1 nM	(0.97x)	8.8 nM	3.4×	0.5 nM	1.7 nM	Cn1cnnc1[C@]1(c2cccc(N3Cc4c(cc(CNC5(C)CCC5)cc4C(F)(F)F)C3=O)c2)C[C@@H](C)C1 [Compound 35, 2-(3-((1r,3r)-3-methyl-1-(4-methyl-4H-1,2,4-triazol-3-yl)cyclobutyl)phenyl)-6-(((1-methylcyclobutyl)amino)methyl)-4-(trifluoromethyl)isoindolin-1-one]
10 nM	(1.5x)	15 nM	3.0×	3.8 nM	11 nM	Cn1cnnc1[C@]1(c2cc(NC3CC(F)(F)C3)nc(N3Cc4c(cc(CNC5(C)CCC5)cc4C(F)(F)F)C3=O)c2)C[C@@H](C)C1 [Compound 48, 2-(6-((3,3-difluorocyclobutyl)amino)-4-((1r,3r)-3-methyl-1-(4-methyl-4H-1,2,4-triazol-3-yl)cyclobutyl)pyridin-2-yl)-6-(((1-methylcyclobutyl)amino)methyl)-4-(trifluoromethyl)isoindolin-1-one]
14 nM	(1.4x)	19.6 nM	7.0×	2.2 nM	16 nM	Cn1cnnc1[C@]1(c2cc(NC3CC(F)(F)C3)nc(N3Cc4c(cc(CNC5(C)CCC5)cc4C(F)(F)F)C3=O)c2)C[C@H](C)C1 [Compound 49, 2-(6-((3,3-difluorocyclobutyl)amino)-4-((1s,3s)-3-methyl-1-(4-methyl-4H-1,2,4-triazol-3-yl)cyclobutyl)pyridin-2-yl)-6-(((1-methylcyclobutyl)amino)methyl)-4-(trifluoromethyl)isoindolin-1-one]
280 nM	(2.0x)	560 nM	3.1×	140 nM	440 nM	Cn1cnnc1C1(c2cccc(N3Cc4c(cc(CNC5(C)CCC5)cc4C(F)(F)F)C3=O)c2)COC1 [Compound 58, 2-(3-(3-(4-methyl-4H-1,2,4-triazol-3-yl)oxetan-3-yl)phenyl)-6-(((1-methylcyclobutyl)amino)methyl)-4-(trifluoromethyl)isoindolin-1-one]
15 nM	(1.7x)	25.5 nM	5.2×	3.7 nM	20 nM	Cn1cnnc1C1(c2cccc(N3Cc4c(cc(CNC5(C)CCC5)cc4C(F)(F)F)C3=O)c2)CC(F)(F)C1 [Compound 61, 2-(3-(3,3-difluoro-1-(4-methyl-4H-1,2,4-triazol-3-yl)cyclobutyl)phenyl)-6-(((1-methylcyclobutyl)amino)methyl)-4-(trifluoromethyl)isoindolin-1-one]
20 nM	(3.1x)	62 nM	19×	3.7 nM	68 nM	Cn1cnnc1C1(c2cccc(N3Cc4c(cc(CNC5(C)CCC5)cc4C(F)(F)F)C3=O)c2)CC2(COC2)C1 [Compound 65, 2-(3-(6-(4-methyl-4H-1,2,4-triazol-3-yl)-2-oxaspiro[3.3]heptan-6-yl)phenyl)-6-(((1-methylcyclobutyl)amino)methyl)-4-(trifluoromethyl)isoindolin-1-one]
6.5 nM	(0.9x)	5.9 nM	1.5×	0.36 nM	0.53 nM	Cn1cnnc1[C@]1(c2cc(NC3CCC3)nc(N3Cc4c(cc(CNC5(C)CCC5)cc4C(F)(F)F)C3=O)c2)C[C@H](C)C1 [Compound 67, 2-(6-(cyclobutylamino)-4-((1S,3S)-3-methyl-1-(4-methyl-4H-1,2,4-triazol-3-yl)cyclobutyl)pyridin-2-yl)-6-(((1-methylcyclobutyl)amino)methyl)-4-(trifluoromethyl)isoindolin-1-one]
8.5 nM	(0.8x)	7.1 nM	4.3×	0.24 nM	1 nM	Cn1cnnc1[C@]1(c2cc(NC3CCC3)nc(N3Cc4c(cc(CNC5(C)CCC5)cc4C(F)(F)F)C3=O)c2)C[C@@H](C)C1 [Compound 68, 2-(6-(cyclobutylamino)-4-((1R,3R)-3-methyl-1-(4-methyl-4H-1,2,4-triazol-3-yl)cyclobutyl)pyridin-2-yl)-6-(((1-methylcyclobutyl)amino)methyl)-4-(trifluoromethyl)isoindolin-1-one]
11 nM	(4.9x)	54 nM	6.9×	3.3 nM	23 nM	CO[C@H]1C[C@@](c2cc(NC3CCCC3)nc(N3Cc4c(cc(CNC5(C)CCC5)cc4C(F)(F)F)C3=O)c2)(c2nncn2C)C1 [Compound 69, 2-(6-(cyclopentylamino)-4-((1S,3S)-3-methoxy-1-(4-methyl-4H-1,2,4-triazol-3-yl)cyclobutyl)pyridin-2-yl)-6-(((1-methylcyclobutyl)amino)methyl)-4-(trifluoromethyl)isoindolin-1-one]
17 nM	(9.3x)	158 nM	20×	11 nM	220 nM	CO[C@H]1C[C@](c2cc(NC3CCCC3)nc(N3Cc4c(cc(CNC5(C)CCC5)cc4C(F)(F)F)C3=O)c2)(c2nncn2C)C1 [Compound 70, 2-(6-(cyclopentylamino)-4-((1R,3R)-3-methoxy-1-(4-methyl-4H-1,2,4-triazol-3-yl)cyclobutyl)pyridin-2-yl)-6-(((1-methylcyclobutyl)amino)methyl)-4-(trifluoromethyl)isoindolin-1-one]
2400 nM	(2.4x)	5300 nM	4.5×	0.4 nM	1.8 nM	CC(C)[C@H]1CN(C)CCN1Cc1cc2c(c(C(F)(F)F)c1)CN(c1cc([C@]3(c4nncn4C)C[C@@H](C)C3)cc(OC3CCCC3)n1)C2=O [Compound 72, 2-(6-(cyclopentyloxy)-4-((1S,3R)-3-methyl-1-(4-methyl-4H-1,2,4-triazol-3-y)cyclobutyl)pyridin-2-yl)-6-(((S)-2-isopropyl-4-methylpiperazin-1-yl)methyl)-4-(trifluoromethyl)isoindolin-1-one]
15 nM	(1.5x)	23 nM	8.7×	8.3 nM	72 nM	CC(C)[C@H]1CN(C)CCN1Cc1cc2c(c(C(F)(F)F)c1)CN(c1cc([C@]3(c4nncn4C)C[C@@H](C)C3)cc(NC3CCCC3)n1)C2=O [Compound 74, 2-(6-(cyclopentylamino)-4-((1S,3R)-3-methyl-1-(4-methyl-4H-1,2,4-triazol-3-yl)cyclobutyl)pyridin-2-yl)-6-(((S)-2-isopropyl-4-methylpiperazin-1-yl)methyl)-4-(trifluoromethyl)isoindolin-1-one]
12 nM	1.0x	12 nM	4.1×	21 nM	87 nM	Cn1cnnc1[C@]1(c2cccc(N3Cc4c(cc(CNC5(C)CCC5)cc4C(F)(F)F)C3=O)c2)C[C@H](CC#N)C1 [Compound 88, 2-((1s,3s)-3-(4-methyl-4H-1,2,4-triazol-3-yl)-3-(3-(6-(((1-methylcyclobutyl)amino)methyl)-1-oxo-4-(trifluoromethyl)isoindolin-2-yl)phenyl)-cyclobutyl)acetonitrile]
41 nM	2.4x	98 nM	6.6×	0.6 nM	4 nM	Cn1cnnc1[C@]1(c2cccc(N3Cc4c(cc(CNC5(C)CCC5)cc4C(F)(F)F)C3=O)c2)C[C@@H](CC#N)C1 [Compound 89, 2-((1r,3r)-3-(4-methyl-4H-1,2,4-triazol-3-yl)-3-(3-(6-(((1-methylcyclobutyl)amino)methyl)-1-oxo-4-(trifluoromethyl)isoindolin-2-yl)phenyl)-cyclobutyl)acetonitrile]
7.8 nM	0.83x	6.6 nM	2.0×	0.2 nM	0.4 nM	CCNc1cc(N2Cc3c(cc(CNC4(C)CCC4)cc3C(F)(F)F)C2=O)cc([C@]2(c3nncn3C)C[C@H](C)C2)c1 [Compound 90, 2-(3-(ethylamino)-5-((1r,3r)-3-methyl-1-(4-methyl-4H-1,2,4-triazol-3-yl)cyclobutyl)phenyl)-6-(((1-methylcyclobutyl)amino)methyl)-4-(trifluoromethyl)isoindolin-1-one]
